Data taken from patent US10336731B2, “Substituted 1H-indole-2-carboxamide compounds as indoleamine-2,3-dioxygenase inhibitors” (Merck Sharp & Dohme Corp., priority 2015, dated 2019).

Tests used:
human IDO protein = human IDO protein (Homo sapiens (Human), UniProt P14902); assay: IDO biochemical coupled assay (formamidase, Ehrlich's reagent); conditions: 0.17 μM human IDO, 120 min pre-incubation, 45 μM L-Trp; read-out: hIDO biochemical assay pIC50 (converted)
Excerpt: (§1) For REF1-REF3 and Compounds 1-11, two different types of assay were employed: 1. An IDO biochemical coupled assay which utilised recombinantly produced and purified IDO enzyme in combination with the enzyme formamidase. This coupled enzyme system allowed conversion of N-formylkynurenine produced by IDO activity to kynurenine which was then quantified by fluorescence following addition of Erhlich's Reagent. 2. A cell-based assay for detecting the effect of test compounds on kynurenine production in cancer cells. This assay utilised cancer cells which expressed IDO and as such was used as a means of testing compound activity at the enzyme in a cell-based context. The protocols for these are set out below.
0.17 μM of human IDO protein was pre-incubated for 120 min at RT with test compounds in the presence of 50 mM KPO4, pH 7.0, 0.5 mM EDTA, 0.5 mM EGTA, 0.05% Triton X-100, 20 mM ascorbate, 500 U/ml catalase, 10 μM methylene blue at RT in a 384 well plate. 0.05 μg/μl kynurenine formamidase and 45 μM L-tryptophan (L-Trp) were added and the assays were incubated at RT for 40 min. Assays were stopped and the level of kynurenine was determined by incubation with Ehrlich's reagent to a final concentration of 1.33% at RT for 5 min. Fluorescence intensity was read at 475 nm/530 nm.

IDO (SKOV-3 cells) = IDO (SKOV-3 cells) (Homo sapiens (Human), UniProt P14902); assay: IDO cell-based assay (kynurenine production in IFNγ-induced SKOV-3 cells); conditions: IFNγ 500 ng/ml, 500 μM L-Trp, 48 h, read-out: pIC50, IDO cellular assay (SKOV3) (converted)
Chain of IDO (SKOV-3 cells) (P14902 whole entry): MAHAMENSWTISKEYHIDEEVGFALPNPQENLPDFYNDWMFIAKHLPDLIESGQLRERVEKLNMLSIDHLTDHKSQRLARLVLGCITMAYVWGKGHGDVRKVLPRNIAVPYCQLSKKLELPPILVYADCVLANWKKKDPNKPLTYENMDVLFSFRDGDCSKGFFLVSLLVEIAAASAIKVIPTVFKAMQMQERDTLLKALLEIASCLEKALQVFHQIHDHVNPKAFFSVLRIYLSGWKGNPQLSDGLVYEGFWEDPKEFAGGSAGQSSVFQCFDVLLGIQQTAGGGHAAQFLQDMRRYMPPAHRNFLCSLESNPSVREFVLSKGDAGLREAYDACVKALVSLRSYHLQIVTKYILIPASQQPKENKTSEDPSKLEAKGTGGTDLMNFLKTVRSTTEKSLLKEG
Excerpt: as §1
SKOV-3 ovary adenocarcinoma (ATCC) cells were grown in McCoys 5A+L-glutamax medium supplemented with 15% foetal bovine serum. On the day of assay, cells were detached using trypsin-EDTA (0.25% v/v), re-suspended in assay media (RPMI 1640 phenol red free+L-glutamine supplemented with 10% dialysed foetal bovine serum). SKOV-3 cells were seeded at 40K cells per well into 96-well plates containing test samples/vehicle control together with 500 μM L-Trp. Cells were then incubated for 48 h at 37° C. 5% CO2. IFNγ was also added at 500 ng/ml for the 48 h incubation in order to induce expression of IDO. Plates were centrifuged and the supernatant was removed and incubated for 5 min in the presence of 1% Erhlich's reagent. Kynurenine levels were then quantified by measuring absorbance at 490 nm.

hIDO1 = hIDO1 (Homo sapiens (Human), UniProt P14902); assay: IDO1 cellular assay in HEK293 cells transiently expressing hIDO1; assay type: cell-based; conditions: HEK293 cell line transiently expressing hIDO1, n=1
Chain of hIDO1 (P14902 whole entry): as above
Procedure: Compounds to be tested were serially diluted in ten 3-fold steps in DMSO starting from 10 mM DMSO stocks. Compound dilutions or DMSO alone were then dispensed from the dilution plate into a Greiner black 384-well assay plate (catalog #781086) using an Echo 550 acoustic liquid handler (Labcyte).
HEK293 cell pellets were resuspended to 5×10^5 cells/mL in complete HEK293 culture media (89% DMEM, 10% FBS, 1% penicillin/streptomycin). Suspended cells (2 mL) were dispensed into each well of a 6-well Corning plate (Catalog#3516). Cells were allowed to attach and were incubated for 20 hours at 37 degrees Celsius in a 5% CO2 incubator. […]
Media was removed from the cells which were then washed with 2 mL Dulbecco's phosphate-buffered saline (DPBS). […] Plates were incubated at 37 degrees in a 5% CO2 incubator overnight to develop fluorescence. […] The resulting fluorescence was measured in an Envision plate reader (Perkin Elmer) with a 400/25 nm excitation filter and an 510/20 nm emission filter.
The fluorescence intensity of each well was corrected for the background observed in wells with untransfected cells and was expressed as a fraction of the intensity observed in wells of IDO1 transfected cells and DMSO only. Potencies were calculated by […] to the four parameter logistic IC50 equation.

Chain of human IDO protein (P14902 whole entry): as above

| SMILES | IC50 (human IDO protein) [nM] | IC50 (IDO (SKOV-3 cells)) [nM] | IC50 (hIDO1) [nM] |
| --- | --- | --- | --- |
| C[C@H]1C[C@@]1(NC(=O)c1cc2cc(Br)ccc2[nH]1)c1cnn(C)c1 (racemic) [Compound 2, racemic] | 398 | 31.6 | – |
| C[C@H]1C[C@@]1(NC(=O)c1cc2cc(C#N)ccc2[nH]1)c1cnn(-c2ccccc2)c1 (single isomer, unassigned) [Compound 9, enantiomer 1] | – | 77.6 | – |
| C[C@H]1C[C@@]1(NC(=O)c1cc2cc(C#N)ccc2[nH]1)c1cnn(-c2ccccc2)c1 (single isomer, unassigned) [Compound 9, enantiomer 2] | – | 43.7 | – |
| C[C@H]1C[C@@]1(NC(=O)c1cc2cc(Cl)ccc2[nH]1)c1cnn(-c2ccc(Cl)cc2)c1 (single isomer, unassigned) [Compound 10, enantiomer 1] | – | 34.7 | – |
| CCc1nn(C)cc1C1(NC(=O)c2cc3cc(Cl)ccc3[nH]2)CC1 [Compound 3] | – | 89.1 | – |
| CC(C)c1nn(C)cc1C1(NC(=O)c2cc3cc(Cl)ccc3[nH]2)CC1 [Compound 4] | – | 87.1 | – |
| O=C(NC1(c2cnn(-c3ccccc3)c2)CC1)c1cc2cc(Cl)ccc2[nH]1 [Compound 5] | – | 91.2 | – |
| Cn1cc(C2(NC(=O)c3cc4cc(Br)cc(F)c4[nH]3)CC2)cn1 [Compound 6] | – | 83.2 | – |

Other lines, results leading:

| IC50 (human IDO protein) [nM] | IC50 (IDO (SKOV-3 cells)) [nM] | IC50 (hIDO1) [nM] | SMILES |
| --- | --- | --- | --- |
| – | 11.7 | – | C[C@H]1C[C@@]1(NC(=O)c1cc2cc(Cl)ccc2[nH]1)c1cnn(-c2ccc(Cl)cc2)c1 (single isomer, unassigned) [Compound 10, enantiomer 2] |
| – | 28.2 | – | C[C@H]1C[C@@]1(NC(=O)c1cc2cc(Cl)ccc2[nH]1)c1cnn(-c2ccc(F)cc2)c1 (single isomer, unassigned) [Compound 11, enantiomer 1] |
| – | 10 | – | C[C@H]1C[C@@]1(NC(=O)c1cc2cc(Cl)ccc2[nH]1)c1cnn(-c2ccc(F)cc2)c1 (single isomer, unassigned) [Compound 11, enantiomer 2] |
| – | – | 202 | C[C@@H]1C[C@]1(NC(=O)c1cc2cc(C#N)ccc2[nH]1)c1cnn(C)c1 (stereo in doubt) [Compound 12, 5-cyano-N-((1R,2R)-2-methyl-1-(1-methyl-1H-pyrazol-4-yl)cyclopropyl)-1H-indole-2-carboxamide] |
| – | 126 | – | Cn1cc(C2(NC(=O)c3cc4cc(Cl)ccc4[nH]3)CC2)cn1 [REF 1, reference compound] |
| – | 186 | – | CCn1cc(C2(NC(=O)c3cc4cc(Cl)ccc4[nH]3)CC2)cn1 [REF 2, reference compound] |
| – | 182 | – | Cn1cc(C2(NC(=O)c3cc4cc(Br)ccc4[nH]3)CC2)cn1 [REF 3, reference compound] |
